Measured values taken from patent publication EP4061322B1 (Institut des Sciences et Industries du Vivant et de …, priority 2019, dated 2021).
Where two headings read alike, the source gives them in different places.

Key:
[1] = Photostability under UV exposure; assay type: physicochemical; conditions: for A (t=0 min): absorbance before UV exposure
From the text: La stabilité des composés 1 à 7 aux UV a été étudiée par soumission à une exposition (λ : 300 nm, P : 8.32 W/m^2) pendant une heure.
L'Avobenzone a été utilisée comme molécule de référence. Cette molécule est connue pour être […] sous exposition UV, ce qui n'est pas du tout le cas d'autres composés bio-sourcés.
La photostabilité des composés 8 à 11 a également été étudiée, de manière identique au test appliqué aux composés 1 à 7. Les résultats obtenus sont présentés dans le Tableau 2. […] Cette méthodologie a été appliquée à l'ensemble des molécules décrites ci-dessus. Tableau 2 : Stabilité des composés 8 à 11 soumis à une exposition aux UV.

[2] = UV-Vis absorption spectrum (anti-UVA and blue light properties); assay type: physicochemical; design: λmax: unit not given here
From the text: Un spectre UV-Vis a été réalisé dans l'éthanol à 10^-5 mol/L pour les composés 1 à 7, qui sont des dérivés furaniques de l'acide de Medrum. L'Avobenzone, une molécule très largement utilisée comme filtre UVA dans les crèmes solaires, a été utilisée en tant que référence.
Cette méthodologie a été employée pour évaluer les propriétés anti-UV des composés 8 à 11, qui sont des dérivés phénoliques de l'acide de Medrum, des composés 12 à 15 qui sont des dérivés pyrroliques de l'acide de Meldrum, des composés 16 à 18 qui sont des dérivés vinylphénol de l'acide de Meldrum, le composé 19 qui est un dérivé vinylfurane de l'acide de Meldrum.

[3] = Antioxidant properties (IC50 compared with BHA and BHT); assay type: biochemical
From the text: Les propriétés anti-oxydantes des composés 8 à 11 ont été évaluées par comparaison de leur IC50 avec celles de deux molécules de référence que sont la BHA et le BHT. Ces deux molécules sont très largement utilisées dans les formulations cosmétiques bien qu'elles soient controversées pour leur effet potentiellement cancérigène.

[4] = target: T1, ERα (récepteur œstrogène alpha) (Homo sapiens, UniProt P03372); test: Endocrine system: receptor activity in presence of compound (agonist effect); assay type: cell-based; conditions: Figure 6, C = 10 µM; even at the highest concentrations
T1 sequence (P03372 1-595): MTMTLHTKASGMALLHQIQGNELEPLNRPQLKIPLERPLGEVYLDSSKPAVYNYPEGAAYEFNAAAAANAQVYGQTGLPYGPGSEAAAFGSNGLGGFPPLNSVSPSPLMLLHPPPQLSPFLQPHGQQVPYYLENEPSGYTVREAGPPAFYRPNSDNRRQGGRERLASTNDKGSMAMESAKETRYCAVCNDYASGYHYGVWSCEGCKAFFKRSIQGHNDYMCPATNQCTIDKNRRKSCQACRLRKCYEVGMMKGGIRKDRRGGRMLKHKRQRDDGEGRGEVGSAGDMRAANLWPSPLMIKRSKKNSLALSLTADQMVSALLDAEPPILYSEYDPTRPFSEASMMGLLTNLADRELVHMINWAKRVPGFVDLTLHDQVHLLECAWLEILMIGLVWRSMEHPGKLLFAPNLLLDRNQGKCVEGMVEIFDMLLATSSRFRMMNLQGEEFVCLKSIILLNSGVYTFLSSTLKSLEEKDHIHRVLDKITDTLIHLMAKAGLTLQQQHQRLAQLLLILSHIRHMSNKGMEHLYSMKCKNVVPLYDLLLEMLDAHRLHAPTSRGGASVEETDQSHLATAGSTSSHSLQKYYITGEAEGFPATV
From the text: (§1) L'effet des composés 1 et 4 sur le système endocrinien a été évalué pour leurs propriétés agonistes et antagonistes sur différents récepteurs : ERα (récepteur œstrogène alpha), AR (récepteur des androgènes) et PXR (pregnane X receptor). Un premier test consiste à étudier l'activité des récepteurs en présence du composé 1 ou 4 (effet agoniste). […] Un second test vise à l'étude de l'activité des récepteurs en présence du composé 1 ou 4 et d'une molécule de référence pour chaque récepteur (effet antagoniste).

[5] = target: T2, PXR (pregnane X receptor) (Homo sapiens, UniProt O75469); test: as above; assay type: cell-based; conditions: Figure 6, C = 10 µM; even at the highest concentrations
T2 sequence (O75469 1-434): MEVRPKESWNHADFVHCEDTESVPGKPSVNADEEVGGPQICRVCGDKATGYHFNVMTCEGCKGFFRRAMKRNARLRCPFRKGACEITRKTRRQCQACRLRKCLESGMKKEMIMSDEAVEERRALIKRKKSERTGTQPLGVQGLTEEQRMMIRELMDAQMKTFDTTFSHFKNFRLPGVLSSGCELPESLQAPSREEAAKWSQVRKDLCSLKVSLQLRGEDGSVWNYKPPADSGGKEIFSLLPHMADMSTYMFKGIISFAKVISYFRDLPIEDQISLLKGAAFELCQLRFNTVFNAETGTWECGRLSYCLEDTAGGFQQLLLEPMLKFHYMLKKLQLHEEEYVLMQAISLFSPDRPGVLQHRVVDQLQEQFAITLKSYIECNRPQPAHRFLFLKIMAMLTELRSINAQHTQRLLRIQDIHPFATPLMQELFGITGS
From the text: as §1

[6] = target: T3, AR (récepteur des androgènes) (Homo sapiens, UniProt P10275); test: as above; assay type: cell-based; conditions: Figure 6, C = 10 µM; even at the highest concentrations
T3 sequence (P10275 1-920): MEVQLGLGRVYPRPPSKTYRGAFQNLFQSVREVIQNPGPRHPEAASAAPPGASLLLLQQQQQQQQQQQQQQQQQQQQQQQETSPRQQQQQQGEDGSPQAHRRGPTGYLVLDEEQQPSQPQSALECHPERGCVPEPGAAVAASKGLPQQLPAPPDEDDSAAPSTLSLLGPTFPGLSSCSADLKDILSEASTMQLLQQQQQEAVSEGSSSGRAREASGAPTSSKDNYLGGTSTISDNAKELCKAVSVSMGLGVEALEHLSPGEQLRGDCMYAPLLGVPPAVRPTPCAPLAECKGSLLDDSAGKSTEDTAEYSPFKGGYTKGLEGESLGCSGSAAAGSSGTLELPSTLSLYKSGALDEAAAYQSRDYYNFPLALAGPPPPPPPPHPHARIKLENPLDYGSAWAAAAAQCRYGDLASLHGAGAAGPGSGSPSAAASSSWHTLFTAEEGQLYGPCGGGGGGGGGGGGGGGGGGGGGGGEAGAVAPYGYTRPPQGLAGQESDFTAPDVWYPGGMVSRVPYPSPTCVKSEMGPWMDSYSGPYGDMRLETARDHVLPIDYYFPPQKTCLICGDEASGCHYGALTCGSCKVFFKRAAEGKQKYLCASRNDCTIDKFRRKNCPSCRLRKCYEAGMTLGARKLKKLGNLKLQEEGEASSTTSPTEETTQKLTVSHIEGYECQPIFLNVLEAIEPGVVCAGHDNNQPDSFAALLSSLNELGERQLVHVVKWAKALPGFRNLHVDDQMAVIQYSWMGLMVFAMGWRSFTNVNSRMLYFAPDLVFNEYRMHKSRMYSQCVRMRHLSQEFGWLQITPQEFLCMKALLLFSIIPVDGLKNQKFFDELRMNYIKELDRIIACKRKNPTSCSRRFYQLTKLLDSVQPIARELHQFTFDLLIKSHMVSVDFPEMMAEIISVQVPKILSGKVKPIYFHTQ
From the text: as §1

[7] = target: T1, ERα (récepteur œstrogène alpha); test: Endocrine system: receptor activity in presence of compound and reference molecule (antagonist effect); assay type: cell-based; conditions: Figure 7; with reference molecule; even at the highest concentrations
From the text: as §1

[8] = target: T2, PXR (pregnane X receptor); test: as above; assay type: cell-based; conditions: Figure 9; with reference molecule; even at the highest concentrations
From the text: as §1

[9] = target: T3, AR (récepteur des androgènes); test: as above; assay type: cell-based; conditions: Figure 8; with reference molecule; even at the highest concentrations
From the text: as §1

[10] = Tableau 2, same test as for compounds 1 to 7 (λ 300 nm, P 8.32 W/m^2, one hour)
[11] = Tableau 1, UV exposure λ 300 nm, P 8.32 W/m^2, one hour
[12] = read-out: IC50 (nmol); antioxidant properties

In the case of COc1cc(C=C2C(=O)OC(C)(C)OC2=O)cc(OC)c1O, the “A (t=0 min)” value ([1]; Tableau 2) is reported as 0,24614, the “Perte d'activité (%)” value [1, 10] is reported as 11,43% and the λmax ([2]; Tableau 2) is reported as 405. For the same molecule, the IC50 ([3]; antioxidant properties; read-out: IC50 (nmol)) was 3.58 nM and the capacité antioxydante ([3]; result in words) was “remarquables”.
With COc1ccc(C(=O)CC(=O)c2ccc(C(C)(C)C)cc2)cc1 [Avobenzone, reference compound] the “Perte d'activité (%)” value [1, 11] was 0,6%, the “A (t=0 min)” value ([1]; Tableau 1) was 0,36735 and the λmax ([2]; Tableau 1) was 350.
COc1ccc(O)c(C(C)(C)C)c1 [BHA, reference compound] gave an IC50 [3, 12] of 6.51 nmol.
Cc1cc(C(C)(C)C)c(O)c(C(C)(C)C)c1 [BHT, reference compound] gave an IC50 [3, 12] of 13.1 nmol.
With CC1(C)OC(=O)C(=Cc2ccco2)C(=O)O1 [Composé 1, 5-(2-Furanylmethylene)-2,2-dimethyl-1,3-dioxane-4,6-dione] the “Perte d'activité (%)” value [1, 11] was less than 5%, the “Perte d'activité (%)” value ([1]; Tableau 1, UV exposure λ 300 nm, P 8.32 W/m^2, one hour, listed as Composé (1)) was 3.5% and the “A (t=0 min)” value ([1]; Tableau 1) was 0.3381. For the same molecule, the “effet agoniste (activité du récepteur ERα)” value [4] was “n'induisent pas une activité anormale des récepteurs”, the “effet agoniste (activité du récepteur PXR)” value [5] was “n'induisent pas une activité anormale des récepteurs” and the “effet agoniste (activité du récepteur AR)” value [6] was “n'induisent pas une activité anormale des récepteurs”. For the same molecule, the “effet antagoniste sur le récepteur ERα” value [7] was “n'empêchent pas l'activité des récepteurs envers les molécules de référence”, the “effet antagoniste sur le récepteur PXR” value [8] was “n'empêchent pas l'activité des récepteurs envers les molécules de référence” and the “effet antagoniste sur le récepteur AR” value [9] was “n'empêchent pas l'activité des récepteurs envers les molécules de référence”. For the same molecule, the λmax ([2]; Tableau 1) was 361.
In the case of CC1(C)OC(=O)C(=Cc2ccc(O)c(O)c2)C(=O)O1 [Composé 9], the “A (t=0 min)” value ([1]; Tableau 2) is reported as 0,26515, the “Perte d'activité (%)” value [1, 10] is reported as 6,37% and the λmax ([2]; Tableau 2) is reported as 398. The IC50 [3, 12] was 2.9 nmol and the capacité antioxydante ([3]; result in words) was “remarquables”.
With CC1(C)OC(=O)C(=Cc2ccc(O)cc2)C(=O)O1 [Composé 10, 5-(4-Hydroxybenzylidene)-2,2-dimethyl-1,3-dioxane-4,6-dione] the “A (t=0 min)” value ([1]; Tableau 2) was 0,29431, the “Perte d'activité (%)” value [1, 10] was 3,47% and the λmax ([2]; Tableau 2) was 374. For the same molecule, the “IC50 (nmol)” value ([3]; antioxidant properties) was “Pas d'effet”.
In the case of Cc1cc(C=C2C(=O)OC(C)(C)OC2=O)oc1C [compound 2, 5-[(4,5-Dimethyl-2-furanyl)methylene]-2,2-dimethyl-1,3-dioxane-4,6-dione], the “Perte d'activité (%)” value [1, 11] is reported as less than 5%, the “Perte d'activité (%)” value ([1]; Tableau 1, UV exposure λ 300 nm, P 8.32 W/m^2, one hour, listed as Composé (2)) is reported as 4,2% and the “A (t=0 min)” value ([1]; Tableau 1) is reported as 0,37961. It also gave a λmax ([2]; Tableau 1) of 400.
For CCc1ccc(C=C2C(=O)OC(C)(C)OC2=O)o1 [compound 3, 5-[(5-Ethyl-2-furanyl)methylene]-2,2-dimethyl-1,3-dioxane-4,6-dione], the “Perte d'activité (%)” value [1, 11] was less than 5%, the “Perte d'activité (%)” value ([1]; Tableau 1, UV exposure λ 300 nm, P 8.32 W/m^2, one hour, listed as Composé (3)) was 5,1% and the “A (t=0 min)” value ([1]; Tableau 1) was 0,31307. For the same molecule, the λmax ([2]; Tableau 1) was 374.
In the case of CC1(C)OC(=O)C(=Cc2cc3ccccc3o2)C(=O)O1 [compound 5, 5-(2-benzofuranylmethylene)-2,2-dimethyl-1,3-dioxane-4,6-dione], the “Perte d'activité (%)” value [1, 11] is reported as 28,7%, the “A (t=0 min)” value ([1]; Tableau 1) is reported as 0,32310 and the λmax ([2]; Tableau 1) is reported as 386.
For CC(=O)OCc1ccc(C=C2C(=O)OC(C)(C)OC2=O)o1 [compound 6, 5-[[5-((Acetyloxy)methyl)-2-furanyl]methylene]-2,2-dimethyl-1,3-dioxane-4,6-dione], the “Perte d'activité (%)” value [1, 11] was 12,0%, the “A (t=0 min)” value ([1]; Tableau 1) was 0,28728 and the λmax ([2]; Tableau 1) was 366.
With CC1(C)OC(=O)C(=Cc2ccc(C=C3C(=O)OC(C)(C)OC3=O)o2)C(=O)O1 [compound 7, 5,5'-(2,5-furandiyldimethylidyne)bis-2,2-dimethyl-1,3-dioxane-4,6-dione] the “Perte d'activité (%)” value [1, 11] was 12,4%, the “A (t=0 min)” value ([1]; Tableau 1) was 0,47642 and the λmax ([2]; Tableau 1) was 406 - 426.
For CC1(C)OC(=O)C(=CC=Cc2ccco2)C(=O)O1 [compound 19, 5-[3-(2-furanyl)-2-propen-1-ylidene]-2,2-dimethyl-1,3-Dioxane-4,6-dione], the “absorption UVA et lumière bleue (spectre UV-Vis)” value ([2]; in ethanol at 10^-5 mol/L, Figure 2) was “comparables à ceux obtenus avec les composés 1 à 7”.
